Test results taken from US5591741A, “Fungicidal spiroheterocyclic derivatives” (American Cyanamid Company, priority 1993, dated 1997).

How the values were obtained:
Plasmopara viticola = test: Antisporulant activity against vine downy mildew (PVA); format: in vivo; conditions: vine leaves, antisporulant foliar spray, 600 ppm, 750 l/ha
How it was run: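 Cabernet Sauvignon vines (~8 cm) inoculated on lower leaf surfaces with 5×10^4 zoosporangia/ml, held 24 h at 21° C high humidity then 24 h glasshouse. Infected leaves sprayed underside with 600 ppm compound in 1:1 water/acetone, 0.04% Tween 20, 750 l/ha; 96 h glasshouse, 24 h humidity. Sporulating leaf area rated versus control.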

Alternaria solani = test: Activity against tomato early blight (AS); format: in vivo; conditions: Table VI; tomato seedlings, contact prophylactic foliar spray, 4 days
How it was run: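 Plants were challenged with A. solani conidia (10^4 spores/ml) 24 h after a protective foliar spray of compound in 50:50 acetone/water plus 0.04% Tween 20. Held humid at 21° C for 4 days, then percent leaf area with lesions was scored as a rating relative to controls.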

Botrytis cinerea = test: Direct protectant activity against broad bean grey mould (BCB); format: in vivo; conditions: direct protectant foliar spray, 600 ppm, 4 days
How it was run: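 Protectant foliar test: lesion coverage assessed 4 days after inoculation and rated relative to untreated or diluent-sprayed plants. Compound applied at 600 ppm to cv The Sutton leaves 24 h before 10^6 conidia/ml suspension; incubation at 22 °C in high humidity.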

Leptosphaeria nodorum = test: Activity against wheat leafspot (LN); format: in vivo; conditions: direct therapeutic foliar spray, 600 ppm, 6-8 days
How it was run: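 Therapeutic foliar spray: compound at 600 ppm applied to single-leaf wheat (cv Norman) 24 h after inoculation with 1.5×10^6 conidia/ml. Disease control scored after 6-8 days at 22° C and 70% humidity as lesions per leaf versus untreated or diluent-sprayed controls.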

[1] = tested on: Erysiphe graminis f.sp. hordei; test: Activity against barley powdery mildew, direct therapeutic (EGT); format: in vivo; conditions: direct therapeutic foliar spray, 600 ppm, up to 7 days
How it was run: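 A curative spray at 600 ppm was applied to single-leaf Golden Promise barley inoculated with powdery mildew conidia the previous day. After up to 7 days at 18 °C and 40% humidity, disease control was rated from percent leaf area sporulating relative to untreated or diluent-sprayed controls.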

[2] = tested on: Erysiphe graminis f.sp. hordei; test: Direct protectant activity against barley powdery mildew (EGP); format: in vivo; conditions: direct protectant foliar spray, 8 days
How it was run: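 Rating reflects percentage of leaf area with sporulation compared with untreated or diluent-sprayed controls. Protectant spray was applied to single-leaf barley (cv Golden Promise) 24 h before conidia inoculation. Plants were kept at 18 °C and 40% RH throughout, with 8 days of disease development.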

Phytophthora infestans = format: in vivo; conditions: tomato, direct protectant foliar spray
[3] = tested on: Pseudocercosporella herpotrichoides; test: Activity against wheat eyespot in-vitro (PHI); format: cell-based; conditions: 10 ppm, 10 days, 20° C., mycelial growth
How it was run: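 Mycelial growth was scored after 10 days at 20 °C against untreated or diluent controls. The broth was half-strength potato dextrose, holding 10 ppm test compound (from acetone) and 5×10^4 fragments/ml of the eyespot fungus.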

Rhizoctonia solani = test: Activity against Rhizoctonia in-vitro (RSI); format: cell-based; conditions: 10 ppm, 10 days, 20° C., mycelial growth
How it was run: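 Compound at a final 10 ppm (acetone vehicle) in half-strength PDB, inoculated with 5×10^4 fragments/ml of shaken-culture R. solani mycelium. After incubation at 20° C for 10 days, growth scored as a rating versus untreated or diluent-treated controls.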

Venturia inaequalis = test: Activity against apple scab in-vitro (VII); format: cell-based; conditions: 10 ppm, 10 days, 20° C., mycelial growth
How it was run: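 V. inaequalis propagules (5×10^4/ml, malt agar-grown) were exposed in half-strength PDB to 10 ppm final test compound delivered in acetone. Growth was scored after incubation for 10 days at 20° C, as a rating relative to untreated or diluent-sprayed controls.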

Pyricularia oryzae = format: in vivo; conditions: rice seedlings, direct therapeutic foliar spray, 600 ppm, 4-5 days

| SMILES | disease control rating PVA (Plasmopara viticola) | disease control rating AS (Alternaria solani) | disease control rating BCB (Botrytis cinerea) | disease control rating LN (Leptosphaeria nodorum) | disease control rating EGT [1] | disease control rating EGP [2] | disease control rating PIP (Phytophthora infestans) | disease control rating PHI [3] | disease control rating RSI (Rhizoctonia solani) | disease control rating VII (Venturia inaequalis) | disease control rating PO (Pyricularia oryzae) |
| --- | --- | --- | --- | --- | --- | --- | --- | --- | --- | --- | --- |
| CCCCN(CCCC)C1COC2(CCC(c3ccccc3)CC2)C1 (centres unmarked) [Compound 55] | 0 (less than 50% disease control) | 0 (less than 50% disease control) | 2 (greater than 80% disease control) | 1 (about 50-80% disease control) | 2 (greater than 80% disease control) | 2 (greater than 80% disease control) | 0 (less than 50% disease control) | 0 (less than 50% disease control) | 0 (less than 50% disease control) | 1 (about 50-80% disease control) | 0 (less than 50% disease control) |
| c1ccc(C2CCC3(CC2)CC(NC2CCCCC2)CO3)cc1 (centres unmarked) [Compound 56] | 0 (less than 50% disease control) | 0 (less than 50% disease control) | 2 (greater than 80% disease control) | 2 (greater than 80% disease control) | 2 (greater than 80% disease control) | 2 (greater than 80% disease control) | 0 (less than 50% disease control) | 0 (less than 50% disease control) | 0 (less than 50% disease control) | 1 (about 50-80% disease control) | 0 (less than 50% disease control) |
| CC1CC(C)CN(C2COC3(CCC(c4ccccc4)CC3)C2)C1 (centres unmarked) [Compound 57] | 0 (less than 50% disease control) | 0 (less than 50% disease control) | 0 (less than 50% disease control) | 1 (about 50-80% disease control) | 2 (greater than 80% disease control) | 2 (greater than 80% disease control) | 0 (less than 50% disease control) | 0 (less than 50% disease control) | 0 (less than 50% disease control) | 1 (about 50-80% disease control) | 0 (less than 50% disease control) |
| CC1CN(C2COC3(CCC(c4ccccc4)CC3)C2)CC(C)O1 (centres unmarked) [Compound 58] | 0 (less than 50% disease control) | 0 (less than 50% disease control) | 0 (less than 50% disease control) | 2 (greater than 80% disease control) | 2 (greater than 80% disease control) | 2 (greater than 80% disease control) | 0 (less than 50% disease control) | 0 (less than 50% disease control) | 0 (less than 50% disease control) | 1 (about 50-80% disease control) | 0 (less than 50% disease control) |
| CCCCCCN(C)C1COC2(CCCCC2)C1 (centres unmarked) [Compound 59] | 0 (less than 50% disease control) | 0 (less than 50% disease control) | 0 (less than 50% disease control) | 0 (less than 50% disease control) | 2 (greater than 80% disease control) | 2 (greater than 80% disease control) | 0 (less than 50% disease control) | 0 (less than 50% disease control) | 0 (less than 50% disease control) | 0 (less than 50% disease control) | 0 (less than 50% disease control) |
| CCCCCCN(C)C1COC2(CCC(C(C)(C)CC)CC2)C1 (centres unmarked) [Compound 60] | 0 (less than 50% disease control) | 0 (less than 50% disease control) | 0 (less than 50% disease control) | 1 (about 50-80% disease control) | 2 (greater than 80% disease control) | 2 (greater than 80% disease control) | 0 (less than 50% disease control) | 0 (less than 50% disease control) | 2 (greater than 80% disease control) | 1 (about 50-80% disease control) | 0 (less than 50% disease control) |
| CCCCCCN(C)C1COC2(CCC(c3ccccc3)CC2)C1 (centres unmarked) [Compound 61] | 0 (less than 50% disease control) | 0 (less than 50% disease control) | 0 (less than 50% disease control) | 1 (about 50-80% disease control) | 2 (greater than 80% disease control) | 2 (greater than 80% disease control) | 0 (less than 50% disease control) | 2 (greater than 80% disease control) | 0 (less than 50% disease control) | 1 (about 50-80% disease control) | 0 (less than 50% disease control) |
| CCCNC1COC2(CCC(C(C)(C)C)CC2)C1 (centres unmarked) [Compound 62] | 0 (less than 50% disease control) | 0 (less than 50% disease control) | 1 (about 50-80% disease control) | 0 (less than 50% disease control) | 2 (greater than 80% disease control) | 2 (greater than 80% disease control) | 0 (less than 50% disease control) | 0 (less than 50% disease control) | 0 (less than 50% disease control) | 0 (less than 50% disease control) | 0 (less than 50% disease control) |
| CC(C)NC1COC2(CCC(C(C)(C)C)CC2)C1 (centres unmarked) [Compound 63] | 0 (less than 50% disease control) | 0 (less than 50% disease control) | 0 (less than 50% disease control) | 0 (less than 50% disease control) | 2 (greater than 80% disease control) | 2 (greater than 80% disease control) | 0 (less than 50% disease control) | 0 (less than 50% disease control) | 0 (less than 50% disease control) | 0 (less than 50% disease control) | 0 (less than 50% disease control) |
| CCCCNC1COC2(CCC(C(C)(C)C)CC2)C1 (centres unmarked) [Compound 64] | 0 (less than 50% disease control) | 0 (less than 50% disease control) | 2 (greater than 80% disease control) | 0 (less than 50% disease control) | 2 (greater than 80% disease control) | 2 (greater than 80% disease control) | 2 (greater than 80% disease control) | 0 (less than 50% disease control) | 0 (less than 50% disease control) | 0 (less than 50% disease control) | 0 (less than 50% disease control) |
